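Where inhibition never reached the appropriate level, the endpoint shown equals the highest concentration tested. Otherwise, values were interpolated linearly from a five-concentration, 48-hour dose response in 96-well plates. TGI denotes the concentration required for complete inhibition of growth.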
What was measured:
Assay in all cases: NCI tumour cell line growth inhibition, 48 h
786-0 renal = tested on: 786-0 renal
ACHN renal = tested on: ACHN renal
BT-549 breast = tested on: BT-549 breast
HCT-116 colon = tested on: HCT-116 colon
HCT-15 colon = tested on: HCT-15 colon
OVCAR-3 ovarian = tested on: OVCAR-3 ovarian
SF-268 CNS = tested on: SF-268 CNS
SF-539 CNS = tested on: SF-539 CNS
SR leukemia = tested on: SR leukemia
SW-620 colon = tested on: SW-620 colon

Structure (SMILES) | TGI (786-0 renal) | TGI (ACHN renal) | TGI (BT-549 breast) | TGI (HCT-116 colon) | TGI (HCT-15 colon) | TGI (OVCAR-3 ovarian) | TGI (SF-268 CNS) | TGI (SF-539 CNS) | TGI (SR leukemia) | TGI (SW-620 colon)
CCOC(=O)Nc1ccc(S(=O)(=O)Nn2cnnc2)cc1 | > 100 µM | > 100 µM | > 100 µM | > 100 µM | > 100 µM | 77.4 µM | > 100 µM | 65.1 µM | > 100 µM | > 100 µM
Cn1c(=O)sc2cc(C(=S)N3CCCCC3)ccc21 | > 100 µM | > 100 µM | > 100 µM | > 100 µM | > 100 µM | > 100 µM | > 100 µM | > 100 µM | > 100 µM | > 100 µM
Cc1cc(-c2nc3cccc(O)c3s2)ccc1N | > 100 µM | 49.9 µM | 54.7 µM | > 100 µM | > 100 µM | > 100 µM | > 100 µM | > 100 µM | > 100 µM | > 100 µM
CCN(CC)C(=O)CCN1CC1 | > 10 µM | > 10 µM | > 10 µM | > 10 µM | > 10 µM | > 10 µM | > 10 µM | > 10 µM | > 10 µM | –
Cc1cc(S(=O)(=O)/N=C(/NN)Nc2ccc(Cl)cc2)c(S)cc1Cl | 45.6 µM | 20 µM | 34.6 µM | 20 µM | 53 µM | 82.2 µM | 61.8 µM | 42.6 µM | > 100 µM | 35.9 µM
CCOC1=C(c2ccccc2)N2CCCCC2O1 (stereo not given) | > 100 µM | > 100 µM | 26.3 µM | 15.2 µM | 98.6 µM | > 44.5 µM | 48.1 µM | 34.8 µM | > 31.6 µM | 36.4 µM
COc1cccc(C2c3cc4c(cc3OC(Nc3ccccc3)C2C)OCO4)c1O (stereo not given) | 32.1 µM | > 68.3 µM | 38.8 µM | 36 µM | 48.4 µM | 29.9 µM | > 55.6 µM | 18.1 µM | 7.25 µM | 36.8 µM
O=c1c2nc(-c3ccccc3)oc2n(-c2ccccc2)c(=O)n1-c1ccccc1 | 31.7 µM | > 46.4 µM | > 46.4 µM | > 46.4 µM | > 46.4 µM | > 46.4 µM | 39.3 µM | 35.8 µM | > 31.6 µM | > 46.4 µM
CC1=CCC[C@H]2[C@](C)(CC3=CC(=O)C(SCC(C)C)=CC3=O)[C@@H](C)CC[C@]12C | 27.2 µM | 29.7 µM | 35.8 µM | 24.8 µM | 31.8 µM | 42.1 µM | – | 33.2 µM | 59 µM | 51.7 µM
CC1(C)CC[C@]2(C(=O)O)CC[C@]3(C)[C@H](C(=O)C=C4[C@@]5(C)C=C(C#N)C(=O)C(C)(C)[C@@H]5CC[C@]43C)[C@@H]2C1 | 3.39 µM | 4.47 µM | 4.11 µM | 4.76 µM | 1.7 µM | 0.785 µM | 7.78 µM | 4.05 µM | 2.06 µM | 2.42 µM
CCSC1=CC2(O)N(CCc3ccc(OC)c(OC)c3)C(=O)CC2(C(=O)OC)CC1=O (stereo not given) | 34 µM | > 100 µM | 32.8 µM | 32.1 µM | 72.7 µM | 33.6 µM | – | 78.7 µM | 58.6 µM | 59 µM
COC(=O)Cn1cnc2c(Cl)nc(Nc3ccccc3)nc21 | > 100 µM | > 100 µM | > 100 µM | > 100 µM | 80.4 µM | 50.7 µM | – | > 100 µM | > 100 µM | > 100 µM
O=C(c1ccc(Cl)cc1)N1CCN=C1c1cc2ccccc2c2ccccc12 | 30.4 µM | 31.2 µM | 33.6 µM | 28.1 µM | 31.3 µM | 35.3 µM | 31.9 µM | 29.1 µM | 59 µM | 32.2 µM
O=[Se](O)O | 7.35 µM | 76.6 µM | 39 µM | 15.6 µM | > 100 µM | 10.7 µM | 4.94 µM | 2.56 µM | > 28.6 µM | > 100 µM
CC(C)Oc1cccc(N2C(Nc3ccccc3)=Nc3ccncc3S2(=O)=O)c1 | 52.5 µM | 84.8 µM | 66.4 µM | > 100 µM | 75.5 µM | 52.4 µM | > 100 µM | 44.9 µM | > 100 µM | 57.4 µM
NCCSCCC(=O)O | > 100 µM | > 56.1 µM | > 100 µM | > 100 µM | > 100 µM | > 100 µM | > 100 µM | > 100 µM | > 83.9 µM | > 100 µM
O=C(OCc1ccccc1)N1CCNCCNCCN(C(=O)OCc2ccccc2)CCNCC1 | 28.4 µM | > 100 µM | > 100 µM | 29.1 µM | 50.1 µM | > 100 µM | – | 32.8 µM | 34.2 µM | 32.8 µM
C#CCOC(=O)c1ccc(OC(C)=O)cc1 | > 100 µM | > 100 µM | > 100 µM | > 100 µM | > 100 µM | > 100 µM | > 100 µM | > 100 µM | > 100 µM | > 100 µM
Cc1ccccc1NC(=O)CC(=O)NNC(Sc1ccccc1)c1cc(N=Nc2ccc(Br)cc2)ccc1O (stereo not given) | > 10 µM | > 10 µM | > 10 µM | 1.19 µM | > 10 µM | 4.91 µM | > 10 µM | 4.73 µM | 4.07 µM | > 10 µM
O=c1[nH]nc(Cc2ccc(Cl)cc2)n1/N=C/c1ccc([N+](=O)[O-])o1 | 11.1 µM | 11.4 µM | 6.8 µM | 3.2 µM | 11.5 µM | 25.9 µM | 7.93 µM | 9.39 µM | 7.55 µM | > 21.6 µM

— PubChem BioAssay (NCI)
